Counter-ions that a name gives are not always drawn.
Tests used:
Type in all cases: cell-based
various strains = assay: MIC test of imidazolium salt, overall statement; conditions: text summary of Table 7; compared with benzoalconium chloride (BKC)
[1] = test system: Salmonella typhimurium (ATCC 1331); assay: MIC test of imidazolium salt
[2] = test system: Serratia marcescens (ATCC 27117); assay: MIC test of imidazolium salt
[3] = test system: Moraxella catanhalis (ATCC 25240); assay: MIC test of imidazolium salt

## C=CCn1cc[n+](CCCCCCCCCCCC)c1 [ADIm(Br), 1-allyl-3-dodecylimidazolium salt]
Various strains
  antibacterial activity over various strains: very excellent antibacterial activity, similar to that of benzoalconium chloride (BKC)
[1]
  ADIm(Br) concentration at which strain has antibiosis: 1000 µg/mL
[2]
  ADIm(Br) concentration at which strain has antibiosis: 1000 µg/mL
[3]
  ADIm(Br) concentration at which strain has antibiosis: 1000 µg/mL

Source: patent publication US9131692B2, “Antibacterial imidazolium compound and antibacterial photocurable thiol-ene compositions comprising the same, and antibacterial polymer coatins prepared therefrom” (Korea Institute of Science and Technology, priority 2013, dated 2015)
